Reference: patent US5516779A, “17β-substituted-6-azasteroid derivatives useful as 5α-reductase inhibitors” (Merck & Co., Inc., priority 1994, dated 1996)

Each molecule was assayed against T1, 5α-reductase type 1 (Homo sapiens, UniProt P18405) (assay: Inhibition of 5α-reductase type 1 (conversion of testosterone to DHT, human scalp homogenate)). Details: not given.
T1 construct: Samples of human tissue were pulverized using a freezer mill and homogenized; from tissue; host or cells: human scalp tissue, crude nuclear pellet
T1 sequence (P18405 1-259): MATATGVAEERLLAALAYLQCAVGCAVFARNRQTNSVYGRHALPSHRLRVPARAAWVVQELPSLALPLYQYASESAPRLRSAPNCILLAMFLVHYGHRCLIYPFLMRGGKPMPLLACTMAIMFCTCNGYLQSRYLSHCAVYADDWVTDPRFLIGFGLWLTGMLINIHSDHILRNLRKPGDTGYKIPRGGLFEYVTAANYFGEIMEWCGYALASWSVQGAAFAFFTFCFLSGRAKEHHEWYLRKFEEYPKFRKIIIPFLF
Assay type: biochemical
Procedure: Samples of human tissue were pulverized using a freezer mill and homogenized in 40 mM potassium phosphate, pH 6.5, 5 mM magnesium sulfate, 25 mM potassium chloride, 1 mM phenylmethylsulfonyl fluoride, 1 mM dithiothreitol (DTT) containing 0.25 M sucrose using a Potter-Elvehjem homogenizer. A crude nuclear pellet was prepared by centrifugation of the homogenate at 1,500 x g for 15 min. The crude nuclear pellet was washed two times and resuspended in two volumes of buffer. Glycerol was added to the resuspended pellet to a final concentration of 20%. The enzyme suspension was frozen in aliquots at -80° C. The prostatic and scalp reductases were stable for at least 4 months when stored under these conditions.
The reaction mixture for the type 1 5α-reductase contained 40 mM potassium phosphate, pH 6.5, […] [7-^3 H]-testosterone, 1 mM dithiothreitol and 500 µM NADPH in a final volume of 100 μl. The reaction mixture for the type 2 5α-reductase contained 40 mM sodium citrate, pH 5.5, 0.3 mM [7-^3 H]-testosterone, 1 mM dithiothreitol and 500 µM NADPH in a final volume of 100 μl. Typically, the assay was initiated by the addition of 50-100 μg prostatic homogenate or 75-200 μg scalp homogenate and incubated at 37° C. After 10-50 min. the reaction was quenched by extraction with 250 μl of a mixture of 70% cyclohexane: 30% ethyl acetate containing 10 μl each DHT and T. The aqueous and organic layers were separated by centrifugation at 14,000 rpm in an Eppendorf microfuge. The organic layer was subjected to normal phase HPLC (10 cm Whatman partisil 5 silica column equilibrated in 1 ml/min 70% cyclohexane: 30% ethyl acetate; retention times: DHT, 6.8-7.2 min.; androstanediol, 7.6-8.0 min.; T, 9.1-9.7 min.). The HPLC system consisted of a Waters Model 680 Gradient System equipped with a Hitachi Model 655α autosampler, Applied Biosystems Model 757 -variable UV detector, and a Radiomatic Model A120 radioactivity analyzer. The conversion of T to DHT was monitored using the radioactivity flow detector by mixing the HPLC effluent with one volume of Flo Scint 1 (Radiomatic). Under the conditions described, the production of DHT was linear for at least 25 min. The only steroids observed with the human prostate and scalp preparations were T, DHT and androstanediol.
Compounds were dissolved in 100% ethanol. The compound to be tested was pre-incubated with the enzyme (either 5α-reductase type 1 or 2) prior to initiation by addition of substrate testosterone. IC50 values represent the concentration of inhibitor required to decrease enzyme conversion of testosterone to dihydrotestosterone by 50% of the control. IC50 values were determined using a 6 point titration where the concentration of the inhibitor was varied from 0.1 to 1000 nM. Representative compounds of this invention were tested in the above described assay for 5α-reductase type 1 and type 2 inhibition.

| Structure (SMILES) | IC50 [nM] |
| --- | --- |
| CN1C[C@H]2[C@@H]3CC[C@H](O)[C@@]3(C)CC[C@@H]2[C@@]2(C)CCC(=O)C=C12 [XIII, 6-methyl-17-hydroxy-6-aza-androst-4-en-3-one] | < 100 |

Same assay, conditions: 5α-reductase type 1; pH 6.5; 6 point titration, 0.1 to 1000 nM; "under about"; read-out: IC50 for inhibition of the type 1 isozyme

| Structure (SMILES) | IC50 [nM] |
| --- | --- |
| CN1C[C@@H]2[C@H](CC[C@]3(C)C(=O)CC[C@@H]23)[C@@]2(C)CCC(=O)C=C12 [VII, 6-methyl-6-aza-androst-4-en-3,17-dione] | < 100 |
| CN1C[C@H]2[C@@H]3CCC[C@@]3(C)CC[C@@H]2[C@@]2(C)CCC(=O)C=C12 [XII, 6-methyl-6-aza-androst-4-en-3-one] | < 100 |
| CN1C[C@H]2[C@@H]3CC[C@H](OC(=O)NC(C)(C)C)[C@@]3(C)CC[C@@H]2[C@@]2(C)CCC(=O)C=C12 [XIV, 6-methyl-17-t-butylcarbamoyloxy-6-aza-androst-4-en-3-one] | < 100 |

The remaining lines, values ahead:

| IC50 [nM] | Structure (SMILES) |
| --- | --- |
| < 100 | CCC[C@H]1CC[C@H]2[C@@H]3CN(C)C4=CC(=O)CC[C@]4(C)[C@H]3CC[C@]12C [X, 6-methyl-17-propyl-6-aza-androst-4-en-3-one] |
| < 100 | CC(C)CCC[C@@H](C)[C@H]1CC[C@H]2[C@@H]3CNC4=CC(=O)CC[C@]4(C)[C@H]3CC[C@]12C [XV, 6-aza-cholest-4-en-3-one] |
| < 100 | CC(C)CCC[C@@H](C)[C@H]1CC[C@H]2[C@@H]3CN(C)C4=CC(=O)CC[C@]4(C)[C@H]3CC[C@]12C [XVI, 6-methyl-6-aza-cholest-4-en-3-one] |
